Measured values reported in patent US20020156129A1, “Method of treating pruritus and a pharmaceutical composition for the method” (priority 2001, published 2002).

What was measured:
[1] = tested on: ICR mice, cutaneous barrier function disrupted by acetone/diethylether and water; experiment: Scratching action of mice with disrupted cutaneous barrier function, subcutaneous administration (Example 1); assay type: in vivo, mouse; details: subcutaneous 10 mg/kg at barrier-disrupted site, 15 min before recording; scratching counted for 2 hours; mean ± standard error, 8 mice
Description: A number of scratching action of 8 mice per 2 hours is shown by the average percentage±standard error based on the average of the control group (100%). “S” represents the control group which received saline, “L” represents L-NAME administrated group and “D” represents D-NAME administrated group.
The evaluation of the therapeutic effects of the pharmaceutical composition of the present invention may be conducted by using the small test animals produced by the method developed by the inventors, such as mice of which the cutaneous barrier function have been disrupted. Such animals may be produced according to the following procedure: An noninflammation dermal lesion caused by the disruption of cutaneous barrier function may be induced by degreasing the small test animals by applying an organic solvent to the glabrous skin of the animals and then treating with water. […] For example, the hydration of the stratum corneum can be determined by a technique of conductimetry, determination of electrostatic capacity or FT-IR method. Transepidermal water loss can be non-invasively determined with an electric measuring instrument or the like so as not to influence the scratching action. […]

[2] = tested on: NC mouse; details: administration of NOS inhibitor; cited from earlier work

COC(=O)[C@H](N)CCCN=C(N)N[N+](=O)[O-] [D-NAME, Nw-nitro-D-arginine methyl ester]
number of the scratching action relative to saline control group (100%) [1]: 90.9±15.2%

COC(=O)[C@@H](N)CCCNC(=N)N[N+](=O)[O-] [L-NAME, Nw-nitro-L-arginine methyl ester]
number of the scratching action relative to saline control group (100%) [1]: 27.9±6.4% | effect on scratching action [2]: scratching action can be suppressed
